One molecule from PMC8837113, “Drug Repurposing of the Unithiol: Inhibition of Metallo-β-Lactamases for the Treatment of Carbapenem-Resistant Gram-Negative Bacterial Infections” (International Journal of Molecular Sciences, 2022) can be followed below.

Assay [1] deals with T1, metallo-β-lactamase VIM-2 (Pseudomonas aeruginosa, UniProt Q9K2N0).
T1 construct: gene blaVIM-2; active mature VIM-2 in periplasmic fractions of P. aeruginosa strains B-730P/17 and B-2099/18
Nature of the assay: kinetic inhibition assay in periplasmic fractions (Figure S1); disk diffusion and MIC support. It counts as cell-based.

In assay [2] the target is T2, metallo-β-lactamase NDM-1 (Klebsiella pneumoniae, UniProt C7C422).
T2 construct: gene blaNDM-1; recombinant NDM-1, purified from the periplasmic fraction of E. coli BL21(DE3) (pET-NDM)
T2 sequence (C7C422 29-270 limits assumed): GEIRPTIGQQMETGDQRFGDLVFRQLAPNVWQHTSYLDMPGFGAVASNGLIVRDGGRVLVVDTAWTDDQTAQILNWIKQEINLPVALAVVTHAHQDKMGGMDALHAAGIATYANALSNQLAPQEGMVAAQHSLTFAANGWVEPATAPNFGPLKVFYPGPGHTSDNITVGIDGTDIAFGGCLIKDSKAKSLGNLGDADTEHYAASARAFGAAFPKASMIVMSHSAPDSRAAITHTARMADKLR
Nature of the assay: meropenem hydrolysis kinetics, Lineweaver–Burk (spectrophotometric, […] nm). It counts as biochemical.

One may read the Ki as a dissociation constant, usually derived from enzyme kinetics or from competition with a known ligand. As for `O=S(=O)(O)CC(S)CS` (centres unmarked) [compound 2, 2,3-dimercaptopropane-1-sulfonate], the “kinetic inhibition assay in periplasmic fractions (Figure S1); disk diffusion an” value in assay [1] was “A noticeable dose-dependent inhibitory effect of unithiol (Figure S1) was observed for the two strains studied”. The molecule further yielded an inhibition constant Ki in assay [2] of 16.7 ± 1.2 µM.
